Ki and EC50 data for three molecules are collected here from patent publication US9394273B2, “Therapeutic prostaglandin receptor agonists” (Allergan, Inc., priority 2014, dated 2016).

Assay [1] addresses T1, EP2 (Homo sapiens (Human), UniProt P43116). As to the kind of experiment: EP2 binding assay (Ki). The source says: (§1) U.S. patent application publication No. 20070129552, published on Jun. 7, 2007, incorporated by reference herein, describes the methods used to obtain the in vitro data in Table 1 below.
Assay [2] deals with T2, prostaglandin EP4 receptor (Homo sapiens (Human), UniProt P35408). As to the kind of experiment: EP4 cAMP functional assay. The assay is classed as cell-based.
T2 sequence (P35408 whole entry): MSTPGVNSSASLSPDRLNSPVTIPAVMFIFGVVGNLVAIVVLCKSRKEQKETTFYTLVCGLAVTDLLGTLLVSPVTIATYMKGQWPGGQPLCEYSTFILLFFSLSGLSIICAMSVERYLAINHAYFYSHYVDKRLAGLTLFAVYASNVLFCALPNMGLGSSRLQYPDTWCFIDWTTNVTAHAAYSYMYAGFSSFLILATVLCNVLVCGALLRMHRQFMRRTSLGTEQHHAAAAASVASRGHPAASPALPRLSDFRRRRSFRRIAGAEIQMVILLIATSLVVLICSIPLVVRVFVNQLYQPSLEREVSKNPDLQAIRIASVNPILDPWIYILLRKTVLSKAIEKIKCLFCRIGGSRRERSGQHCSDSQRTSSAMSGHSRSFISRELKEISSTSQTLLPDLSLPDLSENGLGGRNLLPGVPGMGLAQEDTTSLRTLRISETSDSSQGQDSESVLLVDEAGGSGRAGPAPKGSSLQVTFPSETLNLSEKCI
From the text: as §1

The target of a further assay is TP (Homo sapiens (Human), UniProt P21731). Nature of the assay: Other receptors FLIPR: TP. It counts as cell-based. As to conditions: NA undefined in patent.
Sequence of TP (P21731 whole entry): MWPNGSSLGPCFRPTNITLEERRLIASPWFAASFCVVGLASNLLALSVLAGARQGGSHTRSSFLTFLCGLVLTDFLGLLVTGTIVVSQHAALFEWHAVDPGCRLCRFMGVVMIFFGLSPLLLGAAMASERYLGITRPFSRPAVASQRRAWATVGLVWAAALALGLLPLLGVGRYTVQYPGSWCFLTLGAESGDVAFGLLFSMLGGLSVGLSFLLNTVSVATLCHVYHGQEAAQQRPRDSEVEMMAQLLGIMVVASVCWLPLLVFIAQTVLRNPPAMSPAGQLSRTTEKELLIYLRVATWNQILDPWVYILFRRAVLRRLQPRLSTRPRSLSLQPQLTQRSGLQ
From the text: as §1

Assay [3] addresses T1, EP2. As to the kind of experiment: EP2 cAMP functional assay. The assay is classed as cell-based.
From the text: as §1

The target in another assay is EP3 (Homo sapiens (Human), UniProt P43115). Nature of the assay: Other receptors FLIPR: EP3. It counts as cell-based. The conditions noted are these: NA undefined in patent.
Sequence of EP3 (P43115 whole entry): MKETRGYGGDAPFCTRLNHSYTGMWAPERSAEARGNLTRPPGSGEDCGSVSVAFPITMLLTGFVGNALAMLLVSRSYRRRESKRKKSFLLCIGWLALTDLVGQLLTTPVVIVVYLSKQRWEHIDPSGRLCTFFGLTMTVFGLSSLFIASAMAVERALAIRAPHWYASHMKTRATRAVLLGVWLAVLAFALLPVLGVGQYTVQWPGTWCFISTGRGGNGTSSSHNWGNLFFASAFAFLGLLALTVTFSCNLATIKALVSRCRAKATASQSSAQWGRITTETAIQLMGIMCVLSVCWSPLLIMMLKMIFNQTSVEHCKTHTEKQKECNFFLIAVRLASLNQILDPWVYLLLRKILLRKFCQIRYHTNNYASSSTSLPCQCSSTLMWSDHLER
From the text: as §1

Assay [4] has as its target T2, prostaglandin EP4 receptor. As to the kind of experiment: EP4 binding assay (Ki). As to conditions: read-out: EP4 Ki EC50.
From the text: as §1

T1 sequence (P43116 whole entry): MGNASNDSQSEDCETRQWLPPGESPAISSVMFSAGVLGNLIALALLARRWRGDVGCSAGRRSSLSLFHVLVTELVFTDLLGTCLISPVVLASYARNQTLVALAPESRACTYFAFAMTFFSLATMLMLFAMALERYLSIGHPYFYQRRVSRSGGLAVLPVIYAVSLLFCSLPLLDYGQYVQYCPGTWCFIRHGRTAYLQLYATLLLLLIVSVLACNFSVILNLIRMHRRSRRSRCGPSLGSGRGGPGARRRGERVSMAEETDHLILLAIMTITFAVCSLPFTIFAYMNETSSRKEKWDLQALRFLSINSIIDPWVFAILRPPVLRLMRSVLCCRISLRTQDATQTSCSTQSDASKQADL

Turning to `O=C(O)c1ccc(CC[C@H]2C(=O)CC[C@@H]2/C=C/C(O)Cc2ccc(F)c(F)c2)cc1` (single isomer, unassigned) [Entry 24, (E)-4-(2-(2-(4-(3,4-difluorophenyl)-3-hydroxybut-1-en-1-yl)-5-oxocyclopentyl)ethyl)benzoic acid], the Ki stood at 1530 nM at EP2 [1] and 3 nM in assay [4]. For the same molecule, the EC50 in assay [2] stood at 0.3 nM; on TP, 2450 nM; at EP2 [3] it was 30 nM; at EP3, 1510 nM.

In the case of `O=C(O)c1ccc(CC[C@H]2C(=O)CC[C@@H]2/C=C/C(O)Cc2cccc(F)c2)cc1` (single isomer, unassigned) [Entry 6, (E)-4-(2-(2-(4-(3-fluorophenyl)-3-hydroxybut-1-en-1-yl)-5-oxocyclopentyl)ethyl)benzoic acid], the Ki was 1780 nM at EP2 [1] and 2 nM in assay [4]. The EC50 in assay [2] was 0.04 nM; on TP it was 7190 nM; at EP2 [3] it was 10 nM; at EP3, 721 nM.

As to `O=C(O)c1ccc(CC[C@H]2C(=O)CC[C@@H]2/C=C/C(O)Cc2ccc(F)cc2)cc1` (single isomer, unassigned) [Entry 20, (E)-4-(2-(2-(4-(4-fluorophenyl)-3-hydroxybut-1-en-1-yl)-5-oxocyclopentyl)ethyl)benzoic acid], the Ki on EP2 [1] was 745 nM; in assay [4], 3 nM. Further, the EC50 in assay [2] is 0.2 nM; at TP, 5600 nM; on EP2 [3], 11 nM; at EP3, 952 nM.
